# Reference: patent US8808743B2, “Benzonatate compositions and methods of use” (priority 2010, dated 2014)
# Assay: Simulated buccal dissolution testing (stirred flow-thru cell, simulated saliva)
# Type: physicochemical
# Settings: 8 mg dose
# From the text: Most USP dissolution tests use large volumes of media—defined as ‘sink conditions’; the aim is to get complete dissolution of the active ingredient. […] They are: • Small volume • Short residence time • Solids transfer • Composition • Incomplete dissolution
# For buccal dissolution the volume of saliva is very small compared to that of the stomach and the residence time in the mouth is also very short, the bulk of the dosage form being swallowed within a minute. The dissolution test used here employed procedures and a buccal dissolution apparatus devised by DOW Chemical described in U.S. Pat. No. 7,470,545 B2 herein incorporated by reference to the extent not incompatible herewith.
# In order for this test to give meaningful results it is necessary to use a dissolution media that simulates saliva. There is no USP recommended simulated saliva, so the composition used in these studies was based on published ranges. The composition used is shown below:
# The technique uses a stirred flow-thru cell with a very short residence time. The buccal dissolution test was set up using simulated saliva, with a liquid volume in the cell of 9 ml, and a flow rate of 5.3 ml/min (2.7 ml/min thru the dip tube to waste, and 2.6 ml/min thru the filter and the in-line UV cell). UV cell path length was 1 mm. The tests were run at room temperature
# Buccal dissolution studies were carried out with neat Formosa benzonatate (abbreviated below as “Benz”) and benzonatate resinates prepared from this benzonatate. Preparation of the resinates was at room temperature for 40 hours by the procedure described in Example 2.
# Dissolution data were obtained at several benzonatate dosages for both the neat benzonatate and the resinates, and the data were normalized to a dosage of 8 mg. The normalized benzonatate dissolution data are given in Table VII and are plotted as a function of time in FIG. 6.
compound,measurement,setting,value
"CCCCNc1ccc(C(=O)OCCOCCOCCOCCOCCOCCOCCOCCOCCOC)cc1 [BENZ, benzonatate]",Benzonatate Conc. In Effluent,0 sec,0 mg/L
same,Benzonatate Conc. In Effluent,5 sec,0 mg/L
same,Benzonatate Conc. In Effluent,10 sec,0 mg/L
same,Benzonatate Conc. In Effluent,15 sec,37.3 mg/L
same,Cumulative Benzonatate Released,15 sec,0.008 mg
same,Benzonatate Conc. In Effluent,20 sec,192.8 mg/L
same,Cumulative Benzonatate Released,20 sec,0.059 mg
same,Benzonatate Conc. In Effluent,25 sec,353.0 mg/L
same,Cumulative Benzonatate Released,25 sec,0.180 mg
same,Benzonatate Conc. In Effluent,30 sec,473.4 mg/L
same,Cumulative Benzonatate Released,30 sec,0.362 mg
same,Benzonatate Conc. In Effluent,35 sec,544.2 mg/L
same,Cumulative Benzonatate Released,35 sec,0.587 mg
same,Benzonatate Conc. In Effluent,40 sec,574.7 mg/L
same,Cumulative Benzonatate Released,40 sec,0.834 mg
same,Benzonatate Conc. In Effluent,45 sec,585.5 mg/L
same,Cumulative Benzonatate Released,45 sec,1.090 mg
same,Benzonatate Conc. In Effluent,50 sec,573.6 mg/L
same,Cumulative Benzonatate Released,50 sec,1.346 mg
same,Benzonatate Conc. In Effluent,55 sec,559.0 mg/L
same,Cumulative Benzonatate Released,55 sec,1.596 mg
same,Benzonatate Conc. In Effluent,60 sec,541.7 mg/L
same,Cumulative Benzonatate Released,60 sec,1.839 mg
same,Benzonatate Conc. In Effluent,65 sec,519.6 mg/L
same,Cumulative Benzonatate Released,65 sec,2.074 mg
same,Benzonatate Conc. In Effluent,70 sec,498.0 mg/L
same,Cumulative Benzonatate Released,70 sec,2.298 mg
same,Benzonatate Conc. In Effluent,75 sec,480.4 mg/L
same,Cumulative Benzonatate Released,75 sec,2.514 mg
same,Benzonatate Conc. In Effluent,80 sec,460.2 mg/L
same,Cumulative Benzonatate Released,80 sec,2.722 mg
same,Benzonatate Conc. In Effluent,85 sec,439.9 mg/L
same,Cumulative Benzonatate Released,85 sec,2.921 mg
same,Benzonatate Conc. In Effluent,90 sec,421.8 mg/L
same,Cumulative Benzonatate Released,90 sec,3.111 mg
same,Benzonatate Conc. In Effluent,95 sec,403.2 mg/L
same,Cumulative Benzonatate Released,95 sec,3.293 mg
same,Benzonatate Conc. In Effluent,100 sec,387.3 mg/L
same,Cumulative Benzonatate Released,100 sec,3.468 mg
same,Benzonatate Conc. In Effluent,105 sec,369.4 mg/L
same,Cumulative Benzonatate Released,105 sec,3.635 mg
same,Benzonatate Conc. In Effluent,110 sec,353.5 mg/L
same,Cumulative Benzonatate Released,110 sec,3.795 mg
same,Benzonatate Conc. In Effluent,115 sec,337.8 mg/L
same,Cumulative Benzonatate Released,115 sec,3.947 mg
same,Benzonatate Conc. In Effluent,120 sec,323.0 mg/L
same,Cumulative Benzonatate Released,120 sec,4.093 mg
same,Benzonatate Conc. In Effluent,125 sec,308.9 mg/L
same,Cumulative Benzonatate Released,125 sec,4.233 mg
same,Benzonatate Conc. In Effluent,130 sec,294.9 mg/L
same,Cumulative Benzonatate Released,130 sec,4.366 mg
same,Benzonatate Conc. In Effluent,135 sec,282.2 mg/L
same,Cumulative Benzonatate Released,135 sec,4.494 mg
same,Benzonatate Conc. In Effluent,140 sec,269.8 mg/L
same,Cumulative Benzonatate Released,140 sec,4.615 mg
same,Benzonatate Conc. In Effluent,145 sec,257.6 mg/L
same,Cumulative Benzonatate Released,145 sec,4.732 mg
same,Benzonatate Conc. In Effluent,150 sec,246.0 mg/L
same,Cumulative Benzonatate Released,150 sec,4.843 mg
same,Benzonatate Conc. In Effluent,155 sec,235.2 mg/L
same,Cumulative Benzonatate Released,155 sec,4.949 mg
same,Benzonatate Conc. In Effluent,160 sec,224.7 mg/L
same,Cumulative Benzonatate Released,160 sec,5.051 mg
same,Benzonatate Conc. In Effluent,165 sec,214.7 mg/L
same,Cumulative Benzonatate Released,165 sec,5.148 mg
same,Benzonatate Conc. In Effluent,170 sec,205.2 mg/L
same,Cumulative Benzonatate Released,170 sec,5.241 mg
same,Benzonatate Conc. In Effluent,175 sec,195.8 mg/L
same,Cumulative Benzonatate Released,175 sec,5.329 mg
same,Benzonatate Conc. In Effluent,180 sec,187.1 mg/L
same,Cumulative Benzonatate Released,180 sec,5.414 mg
same,Benzonatate Conc. In Effluent,185 sec,178.8 mg/L
same,Cumulative Benzonatate Released,185 sec,5.495 mg
same,Benzonatate Conc. In Effluent,190 sec,170.9 mg/L
same,Cumulative Benzonatate Released,190 sec,5.572 mg
same,Benzonatate Conc. In Effluent,195 sec,163.1 mg/L
same,Cumulative Benzonatate Released,195 sec,5.646 mg
same,Benzonatate Conc. In Effluent,200 sec,155.8 mg/L
same,Cumulative Benzonatate Released,200 sec,5.716 mg
same,Benzonatate Conc. In Effluent,205 sec,148.8 mg/L
same,Cumulative Benzonatate Released,205 sec,5.783 mg
same,Benzonatate Conc. In Effluent,210 sec,142.0 mg/L
same,Cumulative Benzonatate Released,210 sec,5.848 mg
same,Benzonatate Conc. In Effluent,215 sec,135.6 mg/L
same,Cumulative Benzonatate Released,215 sec,5.909 mg
same,Benzonatate Conc. In Effluent,220 sec,129.6 mg/L
same,Cumulative Benzonatate Released,220 sec,5.967 mg
same,Benzonatate Conc. In Effluent,225 sec,123.7 mg/L
same,Cumulative Benzonatate Released,225 sec,6.023 mg
same,Benzonatate Conc. In Effluent,230 sec,118.3 mg/L
same,Cumulative Benzonatate Released,230 sec,6.077 mg
same,Benzonatate Conc. In Effluent,235 sec,112.9 mg/L
same,Cumulative Benzonatate Released,235 sec,6.128 mg
same,Benzonatate Conc. In Effluent,240 sec,107.8 mg/L
same,Cumulative Benzonatate Released,240 sec,6.177 mg
same,Benzonatate Conc. In Effluent,245 sec,102.9 mg/L
same,Cumulative Benzonatate Released,245 sec,6.223 mg
same,Benzonatate Conc. In Effluent,250 sec,98.3 mg/L
same,Cumulative Benzonatate Released,250 sec,6.268 mg
same,Benzonatate Conc. In Effluent,255 sec,93.7 mg/L
same,Cumulative Benzonatate Released,255 sec,6.310 mg
same,Benzonatate Conc. In Effluent,260 sec,89.7 mg/L
same,Cumulative Benzonatate Released,260 sec,6.350 mg
same,Benzonatate Conc. In Effluent,265 sec,85.6 mg/L
same,Cumulative Benzonatate Released,265 sec,6.389 mg
same,Benzonatate Conc. In Effluent,270 sec,81.8 mg/L
same,Cumulative Benzonatate Released,270 sec,6.426 mg
same,Benzonatate Conc. In Effluent,275 sec,78.0 mg/L
same,Cumulative Benzonatate Released,275 sec,6.461 mg
same,Benzonatate Conc. In Effluent,280 sec,74.5 mg/L
same,Cumulative Benzonatate Released,280 sec,6.495 mg
same,Benzonatate Conc. In Effluent,285 sec,71.3 mg/L
same,Cumulative Benzonatate Released,285 sec,6.527 mg
same,Benzonatate Conc. In Effluent,290 sec,68.1 mg/L
same,Cumulative Benzonatate Released,290 sec,6.558 mg
same,Benzonatate Conc. In Effluent,295 sec,64.8 mg/L
same,Cumulative Benzonatate Released,295 sec,6.587 mg
same,Benzonatate Conc. In Effluent,300 sec,61.6 mg/L
same,Cumulative Benzonatate Released,300 sec,6.615 mg
